Key:
[1] = target: Human recombinant Acetyl-CoA Carboxylase 1 (ACC1) (Homo sapiens, UniProt Q13085); assay: Assay X: ACC1 inhibition, inorganic phosphate (malachite green); assay type: biochemical; settings: Assay X: 37° C., 1.5 h, 5 min pre-incubation
Method: (§1) Human recombinant Acetyl-CoA Carboxylase 1 and Acetyl-CoA Carboxylase 2 (ACC1 and ACC2) were assayed by determining the amount of inorganic phosphate (Pi) generated. Pre-incubation of 15 μL enzyme together with 0.75 μL DMSO+/−compound for 5 min was done before the reaction was initiated by the addition of 10 μL substrate. […] After 1.5 h the reaction was stopped by addition of 74 μL of water followed by extensive mixing, split and transfer of 2×40 μL to a read-plate encompassing 30 μL distilled H2O per well (n=2→n=4). Colour reaction was initiated by addition of 30 μL malachite green reagent per well and allowed 15 min before absorbance reading of the plates at 660 nm. The malachite green reagent was prepared by mixing 16.4 mL ammonium molybdate solution (7.5%), 1.64 mL Tween (11%) with 82 mL Malachite Green/H2SO4-solution (0.7 g Malachite Green to 1000 mL of 10% (v/v) H2SO4).
(§2) All compounds were tested in triplicate at 10 different concentrations. Control compound (0, 50 and 100% effect) was included on each plate. […] Curve fitting was done using the following equation: y=(A+((B−A)/(1+((x/C)̂D)))) where A and B represents the curve bottom (% inhibition) and the total amplitude (% inhibition), respectively, whereas C and D are the apparent IC50 and curve slope, respectively.

[2] = target: Human recombinant Acetyl-CoA Carboxylase 2 (ACC2) (Homo sapiens, UniProt O00763); assay: Assay X: ACC2 inhibition, inorganic phosphate (malachite green); assay type: biochemical; settings: Assay X: 37° C., 1.5 h, 5 min pre-incubation
Sequence of Human recombinant Acetyl-CoA Carboxylase 2 (ACC2) (O00763 whole entry): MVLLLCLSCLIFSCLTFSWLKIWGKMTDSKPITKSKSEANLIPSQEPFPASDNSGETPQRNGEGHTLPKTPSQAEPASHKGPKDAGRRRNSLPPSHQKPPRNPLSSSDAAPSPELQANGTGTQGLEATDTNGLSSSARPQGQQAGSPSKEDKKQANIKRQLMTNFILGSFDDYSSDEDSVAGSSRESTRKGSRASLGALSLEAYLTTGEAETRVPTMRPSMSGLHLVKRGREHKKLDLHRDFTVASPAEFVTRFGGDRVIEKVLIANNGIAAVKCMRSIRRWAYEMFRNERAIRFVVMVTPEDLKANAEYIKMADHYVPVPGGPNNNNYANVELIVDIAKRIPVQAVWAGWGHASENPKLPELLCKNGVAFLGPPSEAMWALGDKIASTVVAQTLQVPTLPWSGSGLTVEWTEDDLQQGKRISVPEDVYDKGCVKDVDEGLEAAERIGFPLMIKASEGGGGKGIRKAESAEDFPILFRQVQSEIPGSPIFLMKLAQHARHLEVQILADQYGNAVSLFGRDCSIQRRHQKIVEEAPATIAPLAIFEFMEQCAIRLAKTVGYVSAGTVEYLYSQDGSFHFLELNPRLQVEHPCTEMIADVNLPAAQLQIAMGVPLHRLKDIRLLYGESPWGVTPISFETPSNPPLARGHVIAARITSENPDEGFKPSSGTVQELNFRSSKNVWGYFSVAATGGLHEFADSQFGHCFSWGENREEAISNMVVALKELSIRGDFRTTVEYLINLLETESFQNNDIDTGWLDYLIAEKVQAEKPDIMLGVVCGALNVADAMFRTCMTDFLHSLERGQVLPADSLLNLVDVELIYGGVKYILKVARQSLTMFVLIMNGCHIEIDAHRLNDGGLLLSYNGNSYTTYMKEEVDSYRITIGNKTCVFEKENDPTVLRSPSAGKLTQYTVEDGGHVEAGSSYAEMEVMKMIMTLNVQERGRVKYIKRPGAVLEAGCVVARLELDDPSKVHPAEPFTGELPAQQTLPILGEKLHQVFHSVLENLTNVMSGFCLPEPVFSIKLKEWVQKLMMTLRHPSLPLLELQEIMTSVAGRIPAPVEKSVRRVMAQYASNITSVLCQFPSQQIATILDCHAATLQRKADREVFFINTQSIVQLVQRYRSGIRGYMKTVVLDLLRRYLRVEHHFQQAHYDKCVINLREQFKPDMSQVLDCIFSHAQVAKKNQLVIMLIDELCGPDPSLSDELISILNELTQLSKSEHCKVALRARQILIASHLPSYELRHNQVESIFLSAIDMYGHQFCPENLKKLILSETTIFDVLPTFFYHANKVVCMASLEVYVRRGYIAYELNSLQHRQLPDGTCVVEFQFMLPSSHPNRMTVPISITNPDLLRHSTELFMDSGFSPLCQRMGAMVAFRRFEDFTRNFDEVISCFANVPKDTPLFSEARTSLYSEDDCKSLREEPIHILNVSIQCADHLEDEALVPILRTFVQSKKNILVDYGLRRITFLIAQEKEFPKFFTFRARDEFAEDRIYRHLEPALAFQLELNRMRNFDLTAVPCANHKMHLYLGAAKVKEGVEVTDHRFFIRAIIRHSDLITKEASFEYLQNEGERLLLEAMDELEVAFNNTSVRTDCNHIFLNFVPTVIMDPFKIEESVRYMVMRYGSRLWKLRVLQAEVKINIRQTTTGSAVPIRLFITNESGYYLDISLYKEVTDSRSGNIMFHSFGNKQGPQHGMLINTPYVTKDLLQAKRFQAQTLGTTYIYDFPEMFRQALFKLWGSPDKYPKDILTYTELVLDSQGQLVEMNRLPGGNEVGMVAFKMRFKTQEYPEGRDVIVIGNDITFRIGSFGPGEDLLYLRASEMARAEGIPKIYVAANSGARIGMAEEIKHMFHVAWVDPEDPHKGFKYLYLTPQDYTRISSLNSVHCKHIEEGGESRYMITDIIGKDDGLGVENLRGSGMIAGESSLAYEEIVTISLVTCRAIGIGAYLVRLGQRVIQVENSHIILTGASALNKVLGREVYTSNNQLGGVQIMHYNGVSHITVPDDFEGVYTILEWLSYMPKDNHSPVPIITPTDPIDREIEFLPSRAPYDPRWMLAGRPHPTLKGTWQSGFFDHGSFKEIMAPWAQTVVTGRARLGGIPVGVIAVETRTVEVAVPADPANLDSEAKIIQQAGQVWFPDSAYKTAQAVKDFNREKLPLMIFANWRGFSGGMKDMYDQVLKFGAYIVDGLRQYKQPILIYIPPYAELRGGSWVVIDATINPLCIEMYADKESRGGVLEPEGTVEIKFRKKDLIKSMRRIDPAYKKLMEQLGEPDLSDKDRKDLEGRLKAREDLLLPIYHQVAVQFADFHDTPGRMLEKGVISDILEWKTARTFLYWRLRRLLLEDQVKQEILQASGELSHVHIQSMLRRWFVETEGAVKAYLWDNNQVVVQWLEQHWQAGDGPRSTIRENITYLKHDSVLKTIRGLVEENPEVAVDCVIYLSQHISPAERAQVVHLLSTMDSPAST
Method: as §1, §2

Compound | IC50 [1] [nM] | IC50 [2] [nM]
CC(C)(C)OC(=O)NC[C@H]1CC[C@H](CNC(=O)c2cc(-c3ccc(N4CCC(O)CC4)nc3)nc3ccccc23)CC1 [Example 151, tert-Butyl[(trans-4-{[({2-[6-(4-hydroxypiperidin-1-yl)pyridin-3-yl]-quinolin-4-yl}-carbonyl)amino]methyl}cyclohexyl)methyl]carbamate] | 610 | 160
CC(C)(C)OC(=O)NC[C@H]1CC[C@H](CNC(=O)c2cc(-c3ccc(N(CCO)CCO)nc3)nc3ccccc23)CC1 [Example 152, tert-Butyl{[trans-4-({[(2-{6-[bis(2-hydroxyethyl)amino]pyridin-3-yl}quinolin-4-yl)carbonyl]amino}-methyl)cyclohexyl]methyl}carbamate] | 480 | 170
CC(C)(C)OC(=O)NC[C@H]1CC[C@H](CNC(=O)c2cc(-c3ccc(N4CCC(C(N)=O)CC4)nc3)nc3ccccc23)CC1 [Example 153, tert-Butyl[(trans-4-{[({2-[6-(4-carbamoylpiperidin-1-yl)pyridin-3-yl]-quinolin-4-yl}carbonyl)amino]-methyl}cyclohexyl)methyl]carbamate] | 230 | 130
CC(C)(C)OC(=O)NC[C@H]1CC[C@H](CNC(=O)c2cc(-c3ccc(N4CCNCC4)nc3)nc3ccccc23)CC1 [Example 154, tert-Butyl({trans-4-[({[2-(6-piperazin-1-ylpyridin-3-yl)-quinolin-4-yl]-carbonyl}amino)methyl]cyclohexyl}methyl)carbamate] | 190 | 50
CC(C)(C)OC(=O)NC[C@H]1CC[C@H](CNC(=O)c2cc(-c3ccc(NCCOCCO)nc3)nc3ccccc23)CC1 [Example 155, tert-Butyl({trans-4-[({[2-(6-{[2-(2-hydroxyethoxy)ethyl]amino}pyridin-3-yl)quinolin-4-yl]-carbonyl}amino)-methyl]cyclohexyl}methyl)carbamate] | 1100 | 410
COCCNc1ccc(-c2cc(C(=O)NC[C@H]3CC[C@H](CNC(=O)OC(C)(C)C)CC3)c3ccccc3n2)cn1 [Example 156, tert-Butyl{[trans-4-({[(2-{6-[(2-methoxyethyl)amino]pyridin-3-yl}quinolin-4-yl)carbonyl]amino}methyl)cyclohexyl]methyl}carbamate] | 810 | 350
Cc1cnc(CNc2ccc(-c3cc(C(=O)NC[C@H]4CC[C@H](CNC(=O)OC(C)(C)C)CC4)c4ccccc4n3)cn2)cn1 [Example 159, tert-Butyl({trans-4-[({[2-(6-{[(5-methylpyrazin-2-yl)methyl]amino}pyridin-3-yl)quinolin-4-yl]carbonyl}amino)methyl]cyclohexyl}methyl)carbamate] | 500 | 280
CN(C)[C@H]1CCN(c2ccc(-c3cc(C(=O)NC[C@H]4CC[C@H](CNC(=O)OC(C)(C)C)CC4)c4ccccc4n3)cn2)C1 [Example 160, tert-Butyl{[trans-4-({[(2-{6-[(3S)-3-(dimethylamino)-pyrrolidin-1-yl]pyridin-3-yl}quinolin-4-yl)-carbonyl]amino}methyl)cyclohexyl]methyl}carbamate] | 220 | 70
CC(C)(C)OC(=O)NC[C@H]1CC[C@H](CNC(=O)c2cc(-c3ccc(N4CCC(CO)CC4)nc3)nc3ccccc23)CC1 [Example 161, tert-Butyl{[trans-4-({[(2-{6-[4-(hydroxymethyl)piperidin-1-yl]pyridin-3-yl}-quinolin-4-yl)-carbonyl]amino}methyl)cyclohexyl]methyl}carbamate] | 300 | 160
CC(C)(C)OC(=O)NC[C@H]1CC[C@H](CNC(=O)c2cc(-c3ccc(N4CCC[C@H]4C(N)=O)nc3)nc3ccccc23)CC1 [Example 163, tert-Butyl{[trans-4-({[(2-{6-[(2S)-2-carbamoylpyrrolidin-1-yl]pyridin-3-yl}-quinolin-4-yl)-carbonyl]amino}methyl)cyclohexyl]methyl}-carbamate] | 1100 | 370
CC(C)(C)OC(=O)NC[C@H]1CC[C@H](CNC(=O)c2cc(-c3ccc(NC(CO)CO)nc3)nc3ccccc23)CC1 [Example 164, tert-Butyl({trans-4-[({[2-(6-{[2-hydroxy-1-(hydroxymethyl)-ethyl]amino}pyridin-3-yl)quinolin-4-yl]-carbonyl}amino)methyl]cyclohexyl}methyl)-carbamate] | 1260 | 330
CC(C)(C)OC(=O)NC[C@H]1CC[C@H](CNC(=O)c2cc(-c3ccc(N4CCNC(=O)C4)nc3)nc3ccccc23)CC1 [Example 165, tert-Butyl[(trans-4-{[({2-[6-(3-oxopiperazin-1-yl)-pyridin-3-yl]quinolin-4-yl}carbonyl)amino]-methyl}cyclohexyl)methyl]carbamate] | 540 | 160
Cn1cc(CNc2ccc(-c3cc(C(=O)NC[C@H]4CC[C@H](CNC(=O)OC(C)(C)C)CC4)c4ccccc4n3)cn2)cn1 [Example 166, tert-Butyl({trans-4-[({[2-(6-{[(1-methyl-1H-pyrazol-4-yl)methyl]amino}-pyridin-3-yl)quinolin-4-yl]carbonyl}amino)-methyl]cyclohexyl}methyl)carbamate] | 820 | 410
CC(C)(C)OC(=O)NC[C@H]1CC[C@H](CNC(=O)c2cc(-c3ccc(NCCC(N)=O)nc3)nc3ccccc23)CC1 [Example 167, tert-Butyl{[trans-4-({[(2-{6-[(3-amino-3-oxopropyl)amino]pyridin-3-yl}quinolin-4-yl)-carbonyl]amino}methyl)cyclohexyl]methyl}carbamate] | 4400 | 1580
CC(C)(C)OC(=O)NC[C@H]1CC[C@H](CNC(=O)c2cc(-c3ccc(N4CC(O)C4)nc3)nc3ccccc23)CC1 [Example 168, tert-Butyl[(trans-4-{[({2-[6-(3-hydroxyazetidin-1-yl)-pyridin-3-yl]quinolin-4-yl}carbonyl)amino]-methyl}cyclohexyl)methyl]carbamate] | 680 | 230
CC[C@H](Nc1ccc(-c2cc(C(=O)NC[C@H]3CC[C@H](CNC(=O)OC(C)(C)C)CC3)c3ccccc3n2)cn1)C(N)=O [Example 169, tert-Butyl({trans-4-[({[2-(6-{[(1S)-1-carbamoylpropyl]amino}pyridin-3-yl)-quinolin-4-yl]-carbonyl}amino)methyl]cyclohexyl}methyl)carbamate] | 1370 | 650
Cc1nc(CNc2ccc(-c3cc(C(=O)NC[C@H]4CC[C@H](CNC(=O)OC(C)(C)C)CC4)c4ccccc4n3)cn2)no1 [Example 170, tert-Butyl({trans-4-[({[2-(6-{[(5-methyl-1,2,4-oxadiazol-3-yl)methyl]amino}-pyridin-3-yl)quinolin-4-yl]carbonyl}amino)-methyl]cyclohexyl}-methyl)carbamate] | 1200 | 480
CC(C)(C)OC(=O)NC[C@H]1CC[C@H](CNC(=O)c2cc(-c3ccc(N4CNC(=O)C4)nc3)nc3ccccc23)CC1 [Example 172, tert-Butyl[(trans-4-{[({2-[6-(4-oxoimidazolidin-1-yl)-pyridin-3-yl]quinolin-4-yl}carbonyl)amino]-methyl}cyclohexyl)-methyl]carbamate] | 3500 | 160
